Consider 4 molecules from patent US20090018176A1, “FUNGICIDE COMPOSITION COMPRISING AN ARYLAMIDINE DERIVATIVE AND TWO KNOWN FUNGICIDE COMPOUNDS” (Bayer CropScience AG, priority 2005, published 2009).

The subject of one assay is Puccinia recondita. Description: In vivo preventive test on Puccinia recondita f. sp. tritici (wheat brown rust). Particulars: 50 g/ha of each active compound, evaluation 12 days after inoculation, 0% = control, 100% = no infection. Here is the method:
In Vivo Preventive Test on Puccinia Recondite f. Sp. Tritici (Wheat Brown Rust) [table] To produce a suitable preparation of active compound, 1 part by weight of active compound or active compound combination is mixed with the stated amounts of solvent and emulsifier, and the concentrate is diluted with water to the desired concentration. To test for preventive activity, young plants are […] at the stated rate of application. The plants remain for 24 hours in an incubation cabinet at 20° C. and a relative atmospheric humidity of 100%. The plants are placed in a greenhouse at a temperature of approximately 20° C. and a relative atmospheric humidity of approximately 80% to promote the development of rust pustules. Evaluation is carried out 12 days after the inoculation. 0% means an efficacy which corresponds to that of the control, whereas an efficacy of 100% means that no infection is observed. […] Compound 1 according to the invention is N-ethyl-N-methyl-N′-[4-(3-t-butyl-4-chlorphenoxy)-2,5 xylyl]-formamidine.

For a further assay, the system named is Pyrenophora teres. As to the kind of experiment: In vivo curative test on Pyrenophora teres (barley). The conditions noted are these: 50 g/ha of each active compound, evaluation 12 days after inoculation, 0% = control, 100% = no infection. Here is the method: In Vivo Curative Test on Pyrenophora Teres (Barley) [table] To produce a suitable preparation of active compound, 1 part by weight of active compound or active compound combination is mixed with the stated amounts of solvent and emulsifier, and the concentrate is diluted with water to the desired concentration. To test for curative activity, young plants are sprayed with a conidia suspension of Pyrenophora teres. The plants remain in an incubation cabinet at 20° C. and 100% relative atmospheric humidity for 48 hours. The plants are then sprayed with the preparation of active compound at the stated application rate. The plants are placed in a greenhouse at a temperature of about 20° C. and a relative atmospheric humidity of about 80%. Evaluation is carried out 12 days after the inoculation. 0% means an efficacy which corresponds to that of the control, whereas an efficacy of 100% means that no infection is observed.

SMILES strings stand for the structures.

Consider `CCN(C)C=Nc1cc(C)c(Oc2ccc(Cl)c(C(C)(C)C)c2)cc1C` [compound 1, N-ethyl-N-methyl-N′-[4-(3-t-butyl-4-chlorphenoxy)-2,5 xylyl]-formamidine], for which the entries for the “Experimental efficacy (%)” value with Puccinia recondita and in the assay with Pyrenophora teres were 22% and 0%, respectively.

As to `OC(Cc1ccccc1Cl)(Cn1nc[nH]c1=S)C1(Cl)CC1` (stereo not drawn) [prothioconazole], in the assay with Pyrenophora teres, the “Experimental efficacy (%)” value was determined as 0%.

Regarding `CCCN(CC)CC1COC2(CCC(C(C)(C)C)CC2)O1` (stereo not drawn) [spriroxamine, spiroxamine], the “Experimental efficacy (%)” value in the assay with Puccinia recondita turned out to be 0%; with Pyrenophora teres, 50%.

Take `CC(C)(C)C(O)(CCc1ccc(Cl)cc1)Cn1cncn1` (stereo not drawn) [tebuconazole]: the “Experimental efficacy (%)” value in the assay on Puccinia recondita stood at 78%.
